According to patent US4464467A, “Antitumor antibiotics produced by new streptomyces” (Bristol-Myers Company, priority 1982, dated 1984):

What was measured:
[1] = test system: lymphatic leukemia P388; experiment: Antitumor activity against leukemia P388, second experiment (Table 10); assay type: in vivo, male BDF1 mice; conditions: for MST % T/C / Survivors Day 5 / Survivors Day 22 / Average weight change: QD 1→9; for antitumor activity against leukemia P388 (in words): second experiment, ip, once daily for 9 days, comparative
Protocol: In this experiment lymphatic leukemia P388 was implanted intraperitoneally into male BDF1 mice at an inoculum size of 10^6 cells per mouse. Test compounds were dissolved in 0.9% saline containing 10% dimethylsulfoxide. Graded doses of test compounds were administered to mice intraperitoneally 24 hours after the tumor implantation, and the treatment was continued once daily for 9 days.
Tumor inoculum: 10^6 ascites cells implanted
Treatment: QD 1→9, i.p.
Evaluation: MST = median survival
Effect: % T/C = (MST treated/MST control) ×
Criteria: % T/C ≥125 considered as significant antitumor activity

[2] = test system: lymphocytic leukemia P388; experiment: Antitumor activity against leukemia P388 in mice (Table 9); assay type: in vivo, mice (BDF1 strain); conditions: first experiment; ip, qd 1→9; comparative
Protocol: The antitumor activity of BBM-2040A and B was determined in mice (BDF1 strain) against lymphocytic leukemia P388. Each mouse was inoculated intraperitoneally with 10^6 cells of tumor. Graded doses of test compounds were administered to mice intraperitoneally 24 hours after the tumor implantation. The treatments were given once daily for 9 days (qd 1→9 schedule). Neothramycin was comparatively tested as a reference compound.
*ratio of median survival time of test and control animals

[3] = test system: P388 mouse leukemia; experiment: P388 mouse leukemia test (comparison of 2-hydroxy isomers); assay type: in vivo; conditions: β-hydroxy versus α-hydroxy isomers
Text: The diastereoisomers of BBM-2040A and B of the present invention have been disclosed in Symposium Papers of the 24th Symposium on the Chemistry of Natural Products (Osaka, Japan, Oct. 13-16, 1981): Paper #72, pp. 552-559. Compounds 31b and 32b in this paper have the structures [drawing 2] and may be differentiated from BBM-2040A and B of the present invention in the configuration of the C-2 hydroxy group, i.e. BBM-2040A and B have the C-2 hydroxy group in the α-configuration while the corresponding 31b and 32b diastereoisomers have the β-configuration at the C-2 hydroxy group.

[4] = Solubility
[5] = test system: Streptococcus pyogenes, Micrococcus luteus, Micrococcus flavus and Mycobacterium strains; experiment: Antibacterial activity, agar dilution; assay type: cell-based; conditions: against Streptococcus pyogenes
Protocol: The minimum inhibitory concentration (MIC) of BBM-2040 was determined for a variety of gram-positive, gram-negative and acid-fast bacteria by the serial two-fold agar dilution method. Nutrient agar medium was used for gram-positive and gram-negative organisms and No. 1001 medium (3% glycerol, 0.3% sodium L-glutamate, 0.2% peptone, 0.31% Na2 HPO4, 0.1% KH2 PO4, 0.005% ammonium citrate, 0.001% MgSO4 and 1.5% agar) for acid-fast organisms.

[6] = Acute toxicity, single intraperitoneal administration; set-up: species or system mice (ddY strain); conditions: mouse, in vivo, ip, ddY mice
Protocol: The intraperitoneal LD50 of neothramycin has been reported to be 20-30 mg/kg.

[7] = Stability in solutions
[8] = in benzene, chloroform and n-hexane
[9] = in ethyl acetate, acetone and water
[10] = in methanol, ethanol, n-butanol and pyridine

SMILES: COc1cc2c(cc1O)N=CC1CCC(O)N1C2=O (stereo not drawn) [Neothramycin]
- MST % T/C ([1]; 0.1 mg/kg/day ip): 108%
- Survivors Day 5 ([1]; 0.1 mg/kg/day ip): 6/6
- Survivors Day 22 ([1]; 0.1 mg/kg/day ip): 0/6
- MST % T/C ([1]; 0.3 mg/kg/day ip): 121%
- Survivors Day 5 ([1]; 0.3 mg/kg/day ip): 6/6
- Survivors Day 22 ([1]; 0.3 mg/kg/day ip): 0/6
- MST % T/C ([1]; 1 mg/kg/day ip): 142%
- Survivors Day 5 ([1]; 1 mg/kg/day ip): 6/6
- Survivors Day 22 ([1]; 1 mg/kg/day ip): 0/6
- MST % T/C ([1]; 3 mg/kg/day ip): 146%
- Survivors Day 5 ([1]; 3 mg/kg/day ip): 6/6
- Survivors Day 22 ([1]; 3 mg/kg/day ip): 0/6
- antitumor activity against leukemia P388 (in words) [1]: similarly active
- antitumor activity against leukemia P388 (in words) [2]: similarly active

SMILES: COc1cc2c(cc1O)N[C@H](OC)[C@@H]1C[C@@H](O)CN1C2=O [2β-Hydroxy epimer of BBM-2040 A]
- Survivors Day 5 ([1]; 0.03 mg/kg/day ip): 6/6
- Survivors Day 22 ([1]; 0.03 mg/kg/day ip): 0/6
- Survivors Day 5 ([1]; 0.1 mg/kg/day ip): 6/6
- Survivors Day 22 ([1]; 0.1 mg/kg/day ip): 0/6
- Survivors Day 5 ([1]; 0.3 mg/kg/day ip): 6/6
- Survivors Day 22 ([1]; 0.3 mg/kg/day ip): 0/6
- Survivors Day 5 ([1]; 1 mg/kg/day ip): 6/6
- Survivors Day 22 ([1]; 1 mg/kg/day ip): 0/6

SMILES: COc1cc2c(cc1O)N=C[C@@H]1C[C@@H](O)CN1C2=O [32b, reference compound]
- antitumor activity in the P388 mouse leukemia test (in words) [3]: essentially devoid of antitumor activity

SMILES: COc1cc2c(cc1O)N[C@H](OC)[C@@H]1C[C@H](O)CN1C2=O [BBM-2040A, (2S, 11aS)-5,10,11,11a-tetrahydro-2,8-dihydroxy-7,11-dimethoxy-5-oxo-1H-pyrrolo(2,1-c) (1,4)benzodiazepine]
- solubility [4, 8]: practically insoluble
- solubility [4, 9]: slightly soluble
- solubility [4, 10]: readily soluble
- antibacterial activity (in words) [5]: weak antibacterial activity
- antitumor activity in the P388 mouse leukemia test (in words) [3]: marked activity
- LD50 [6]: 34 mg/kg
- Average weight change ([1]; 0.1 mg/kg/day ip): +1.5 g
- MST % T/C ([1]; 0.1 mg/kg/day ip): 100%
- Survivors Day 5 ([1]; 0.1 mg/kg/day ip): 6/6
- Survivors Day 22 ([1]; 0.1 mg/kg/day ip): 0/6
- Average weight change ([1]; 0.3 mg/kg/day ip): +1.3 g
- MST % T/C ([1]; 0.3 mg/kg/day ip): 117%
- Survivors Day 5 ([1]; 0.3 mg/kg/day ip): 6/6
- Survivors Day 22 ([1]; 0.3 mg/kg/day ip): 0/6
- MST % T/C ([1]; 1 mg/kg/day ip): 133%
- Survivors Day 5 ([1]; 1 mg/kg/day ip): 6/6
- Survivors Day 22 ([1]; 1 mg/kg/day ip): 0/6
- MST % T/C ([1]; 3 mg/kg/day ip): 142%
- Survivors Day 5 ([1]; 3 mg/kg/day ip): 6/6
- Survivors Day 22 ([1]; 3 mg/kg/day ip): 0/6
- MST % T/C ([1]; 10 mg/kg/day ip): 163%
- Survivors Day 5 ([1]; 10 mg/kg/day ip): 6/6
- Survivors Day 22 ([1]; 10 mg/kg/day ip): 1/6
- antitumor activity against leukemia P388 (in words) [1]: similarly active
- antitumor activity against leukemia P388 (in words) [2]: similarly active

SMILES: COc1cc2c(cc1O)N=C[C@@H]1C[C@H](O)CN1C2=O [BBM-2040B]
- solubility [4, 8]: practically insoluble
- solubility [4, 9]: slightly soluble
- solubility [4, 10]: readily soluble
- antibacterial activity (in words) [5]: weak antibacterial activity
- antitumor activity in the P388 mouse leukemia test (in words) [3]: marked activity
- LD50 [6]: 57 mg/kg
- stability in solutions [7]: relatively unstable
- antitumor activity against leukemia P388 (in words) [2]: somewhat less active than BBM-2040A

SMILES: COc1cc2c(cc1O)N[C@H](OC)[C@@H]1C[C@@H](O)CN1C2=O [31b, reference compound]
- antitumor activity in the P388 mouse leukemia test (in words) [3]: essentially devoid of antitumor activity
